Peptide text beside a SMILES is read from it. * marks the point of attachment. Fmoc = O=C(OCC1c2ccccc2-c2ccccc21)*
What was measured:
Format in all cases: cell-based
bovine chondrocytes = test: Culture of chondrocytes on/in hydrogel scaffold (proliferation and retention of phenotype); settings: cell culture of up to 7 days
Description: Bovine chondrocytes were isolated from cartilage of the proximal side of the metacarpalphalangeal joint, washed in PBS and incubated overnight in Dulbeccos Modified Eagles Medium (DMEM) supplemented with 10% foetal calf serum, 100 units ml^−1 penicillin/streptomycin and 0.85 mM ascorbic acid. The cartilage was finely chopped and incubated with pronase type E (700 units ml^−1) (BDH Ltd., Poole, UK) in medium for 2 h followed by collagenase type 1a (300 units ml^−1) (SIGMA-ALDRICH Co. Ltd., Poole, UK) in medium for 2 h. The cell suspension was centrifuged at 1500 rpm for 5 min to pellet the cells. The cells were washed twice in medium and seeded directly onto the peptide scaffolds (and tissue culture plastic control) or encapsulated within the scaffolds during the gelation stage at a cell density of 5×10^5 ml^−1 in medium. The cultures were maintained in an incubator at 37° C. with a humidified atmosphere of 5% CO2 for up to 4 weeks. Chondrocytes were used up to passage 5.
Finally, all three gels prepared (ie. entries 1, 2 and 3) were tested for their ability to support proliferation and retention of phenotype of bovine chondrocytes. […]
The rounded cell shape is the typical phenotype for chondrocytes. […] Two-photon fluorescence microscopy was used to observe samples stained with DAPI, a fluorescent nucleic acid stain that enables visualisation of cell nuclei.

[1] = test system: human adult dermal fibroblast; test: 3D culture inside peptide gels, cell shape; settings: 10 mM/L gel, cells seeded inside the gel
Description: With 10 mM/L Fmoc-Phe-Phe-OH self-assembled hydrogels, human adult dermal fibroblast were also seeded 3 dimensionally (3D culture) inside the peptide gels. […] Despite proliferation, whether ECM components (proteins and saccharides) were synthesized and secreted by these cells is another way to justify cells' reaction to the material. However, viability of the cells is of necessity to maintain a steady ECM secretion or to restore proliferation after possible cell spreading at later time points.

Human dermal fibroblasts = test system: Human dermal fibroblasts
Description: In order to coarsely test cell viability, a Live/Dead assay was chosen in which two reagents of EthD-1 and Calcine AM were involved. […] With the help of this staining and fluorescence microscope, living and dead cells could be easily visualized therefore viability inside the culture is measured.
For making Fmoc-Phe-Phe-OH peptide solution, 0.0107 gram of Fmoc-Phe-Phe-OH was weighed in a glass vial and sterilized for 30 minutes by an ultraviolet light with bottles of distilled water, filtered NaOH (Sodium Hydroxide, 0.5 M/L), filtered HCl (Hydrochloric Acid, 0.5 M/L), and relevant apparatus (spatulas, pipettes, Vortex). 2 mL of the sterile distilled water was then added into the glass vial of Fmoc-Phe-Phe-OH, and the mixture was vortexed for a few seconds to create a suspension. Afterwards, approximate 100 μL of NaOH was gradually pipetted into the suspension (20 μL each pipetting) and the mixture was vortexed after every addition of the alkaline. […] The basic peptide solution (pH around 10) was finally neutralized to pH 7 by dropwise addition of HCl and pH values were monitored by a pH meter with a micro-probe. […]

[2] = test system: human adult dermal fibroblasts; test: LDH assay of cell viability (3D culture)
Description: In order to quantitatively test cell viability in the 3D culture, LDH assay was adopted which tested the amount of lactate dehydrogenase inside cell […] (reflecting cell numbers).
0.0107 gram of Fmoc-Phe-Phe-OH was weighed in a glass vial and sterilized for 30 minutes by an ultraviolet light with bottles of distilled water, filtered NaOH (Sodium Hydroxide, 0.5 M/L), filtered HCl (Hydrochloric Acid, 0.5 M/L), and relevant apparatus (spatulas, pipettes, Vortex). 2 mL of the sterile distilled water was then added into the glass vial of Fmoc-Phe-Phe-OH, and the mixture was vortexed for a few seconds to create a suspension. Afterwards, approximate 100 μL of NaOH was gradually pipetted into the suspension (20 μL each pipetting) and the mixture was vortexed after every addition of the alkaline. The whole mixture was shaken continually until a homogeneous transparent solution was obtained. The basic peptide solution (pH around 10) was finally neutralized to pH 7 by dropwise addition of HCl and pH values were monitored by a pH meter with a micro-probe. […]
The culture was maintained in a 37° C./5% CO2 incubator for a 10 day period and LDH assay was carried out after 1 hour, 1 day, 3 days, 7 days, and 10 days. […] Assay reagent was then added, the mixture was incubated, and light absorbance at 490 nm was then measured. Absorbance was converted to cell number according to a standard. […]

Structure (SMILES): O=C(N[C@@H](Cc1ccccc1)C(=O)N[C@@H](Cc1ccccc1)C(=O)O)OCC1c2ccccc2-c2ccccc21 [Entry 1, Fmoc-Phe-Phe-OH] (Fmoc-Phe-Phe-OH)
- retention of morphological phenotype and proliferation of chondrocytes (bovine chondrocytes): cell morphological phenotype is retained
- cell shape in 3D culture [1]: oval to round cell shape remained for a long term
- cell viability (live/dead staining) (Human dermal fibroblasts): majority of cells were shown to be living
- cell spreading in the gel (Human dermal fibroblasts; during the first 3 days, 3D culture): did not complete spreading
- cell number (LDH assay), initial course ([2]; 3D culture, 10 day period): initially a decreasing of cell numbers
- cell number increase (LDH assay) ([2]; from day 7 to day 10, 3D culture): 5 folds

— patent US8420605B2, “Hydrogel compositions” (The University of Strathclyde, priority 2005, dated 2013)
